Results reported in ChEMBL document CHEMBL4043240, “Synthesis and evaluation of the NSCLC anti-cancer activity and physical properties of 4-aryl-N-phenylpyrimidin-2-amines” (Bioorg Med Chem Lett, 2017).
pIC50: −log10 of the molar value. In brackets after ≈: the same amount, converted by molar mass.

Assays:
Vero = assay: Cytotoxicity against African green monkey Vero cells after 72 hrs by MTT assay; type: ADME, cell-based; conditions: Chlorocebus sabaeus
A549 = assay: Cytotoxicity against human A549 cells after 72 hrs by MTT assay; type: functional, cell-based; conditions: A549, 72 h
[1] = Selectivity index, ratio of IC50 for African green monkey Vero cells to IC50 for human A549 cells; type: functional
KB [2] = assay: Cytotoxicity against human KB cells at 10 uM after 72 hrs by resazurin based fluorescence assay relative to control; type: functional
NCI-H187 [3] = assay: Cytotoxicity against human NCI-H187 cells at 10 uM after 72 hrs by resazurin based fluorescence assay; type: functional
[4] = 1-octanol/water partition co-efficient, log D of the compound in PBS at pH 7.4 after 6 hrs by HPLC-UV based shake-flask method; type: physicochemical; conditions: 1-octanol/PBS
MCF7 [5] = assay: Cytotoxicity against human MCF7 cells at 10 uM after 72 hrs by resazurin based fluorescence assay; type: functional
[6] = Solubility of the compound in PBS at pH 7.4 by HPLC-UV analysis; type: physicochemical
NCI-H187 [7] = assay: Cytotoxicity against human NCI-H187 cells after 72 hrs by resazurin based fluorescence assay; type: functional, cell-based; conditions: NCI-H187, 72 h
KB [8] = assay: Cytotoxicity against human KB cells after 72 hrs by resazurin based fluorescence assay; type: functional, cell-based
[9] = target: Cyclin-dependent kinase 5 (Homo sapiens, UniProt Q00535); assay: Inhibition of human CDK5
KB [10] = assay: Cytotoxicity against human KB cells at 10 ug/ml after 72 hrs by resazurin based fluorescence assay relative to control; type: functional
NCI-H187 [11] = assay: Cytotoxicity against human NCI-H187 cells at 10 ug/ml after 72 hrs by resazurin based fluorescence assay; type: functional
MCF7 [12] = assay: cells; conditions: Homo sapiens, MCF7, 72 h
Description: Cytotoxicity against human MCF7 cells after 72 hrs by resazurin based fluorescence assay

Chain of Cyclin-dependent kinase 5 (Q00535 whole entry): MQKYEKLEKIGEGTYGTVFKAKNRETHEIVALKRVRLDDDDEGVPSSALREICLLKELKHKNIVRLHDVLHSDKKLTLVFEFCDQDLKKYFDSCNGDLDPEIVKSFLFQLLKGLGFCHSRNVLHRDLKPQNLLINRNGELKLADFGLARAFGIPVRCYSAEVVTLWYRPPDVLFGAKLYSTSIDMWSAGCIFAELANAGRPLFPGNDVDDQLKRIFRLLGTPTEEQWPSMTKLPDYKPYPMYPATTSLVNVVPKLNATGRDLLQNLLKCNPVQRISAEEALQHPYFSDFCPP

| SMILES | pIC50 (Vero) | pIC50 (A549) | Ratio IC50 [1] | Activity (KB [2]) [%] | Activity (NCI-H187 [3]) [%] | logD at 6 h [4] | Activity (MCF7 [5]) [%] | solubility [6] [µM] | pIC50 (NCI-H187 [7]) | pIC50 (KB [8]) | pIC50 [9] | Activity (KB [10]) [%] | Activity (NCI-H187 [11]) [%] | pIC50 (MCF7 [12]) |
| --- | --- | --- | --- | --- | --- | --- | --- | --- | --- | --- | --- | --- | --- | --- |
| CS(=O)(=O)c1ccc(-c2ccnc(Nc3cccc(C(N)=O)c3)n2)cc1 | 4.42 | < 4.00 | 0 |  |  |  |  |  |  |  |  |  |  |  |
| COC(=O)c1ccc(Nc2nccc(-c3ccc(OC)cc3)n2)cc1 | 5.35 | 5.22 | 0 | 0 | 23.8 | 2.9 | 0 | 6.9 (≈ 2.31 µg/mL) |  |  |  |  |  |  |
| NS(=O)(=O)c1cccc(Nc2nccc(-c3ccccc3)n2)c1 | 6.10 | 6.70 | 4 | 93.6 | 99.8 | 2.9 | 0 | 3.4 (≈ 1.11 µg/mL) | 5.93 | 5.61 |  |  |  |  |
| Cc1csc(-c2ccnc(Nc3ccc(C(N)=O)cc3)n2)c1 | 5.21 | 4.52 | 0 |  |  |  |  |  |  |  |  |  |  |  |
| COc1ccc(-c2ccnc(Nc3cccc(N)c3)n2)cc1 |  |  |  |  |  |  |  |  |  |  | 4.09 |  |  |  |
| Cc1c2ccncc2c(C)c2c1[nH]c1ccccc12 [ELLIPTECINE] |  |  |  |  |  |  |  |  | 6.02 | 5.55 |  | 96.3 | 99.24 |  |
| COc1ccc(-c2ccnc(Nc3ccc(S(N)(=O)=O)cc3)n2)cc1 | 5.62 | 5.36 | 0 |  |  |  |  |  |  |  |  |  |  |  |
| COc1ccc(-c2ccnc(Nc3ccc4nc[nH]c4c3)n2)cc1 | 4.83 | 4.86 | 1.1 |  |  |  |  |  |  |  |  |  |  |  |
| COc1ccc(-c2ccnc(Nc3cccc(S(N)(=O)=O)c3)n2)cc1 | 5.96 | 5.80 | 0 | 76.3 | 82.3 | 2.7 | 63.3 | 38.4 (≈ 13.7 µg/mL) | 5.68 | 5.89 |  |  |  | 5.23 |
| Cc1csc(-c2ccnc(Nc3cccc(C(N)=O)c3)n2)c1 | < 4.00 | < 4.00 | 0 |  |  |  |  |  |  |  |  |  |  |  |
| CC/C(=C(\c1ccccc1)c1ccc(OCCN(C)C)cc1)c1ccccc1 [TAMOXIFEN] |  |  |  |  |  |  |  |  |  |  |  |  |  | 5.10 |
| COc1cccc(-c2ccnc(Nc3cccc(S(N)(=O)=O)c3)n2)c1 | 5.96 | 5.59 | 0 | 94.9 | 96.6 | 3 | 63.8 | < 0.6 | 5.87 | 5.45 |  |  |  | 5.82 |
| CC(=O)Nc1ccc(-c2ccnc(Nc3cccc(C(N)=O)c3)n2)cc1 | < 4.00 | 4.48 | >3 |  |  |  |  |  |  |  |  |  |  |  |
| COc1ccc(-c2ccnc(Nc3cccc(NS(C)(=O)=O)c3)n2)cc1 | 6.05 | 6.70 | 4.5 | 43.7 | 84.8 | 3.2 | 41 | < 0.5 | 5.27 |  |  |  |  |  |
| CC(=O)Nc1ccc(-c2ccnc(Nc3cccc(S(N)(=O)=O)c3)n2)cc1 | 5.06 | 5.18 | 1.3 |  |  |  |  |  |  |  |  |  |  |  |
| CS(=O)(=O)c1ccc(-c2ccnc(Nc3cccc(S(N)(=O)=O)c3)n2)cc1 | < 4.00 | < 4.00 | 0 |  |  |  |  |  |  |  |  |  |  |  |
| Cc1csc(-c2ccnc(Nc3cc([N+](=O)[O-])ccc3O)n2)c1 | < 4.00 | < 4.00 | 0 |  |  |  |  |  |  |  |  |  |  |  |
| COc1cccc2c1C(=O)c1c(O)c3c(c(O)c1C2=O)C[C@@](O)(C(=O)CO)C[C@@H]3O[C@H]1C[C@H](N)[C@H](O)[C@H](C)O1 [DOXORUBICIN] | 5.85 | 6.40 |  |  |  |  |  |  | 7.22 | 5.87 |  | 99.7 | 96.98 |  |
| COc1ccc(-c2ccnc(Nc3ccc(C(=O)O)cc3)n2)cc1 | < 4.00 | 4.69 | >4.9 | 0 | 23.5 | 1.2 | 0 | 12.1 (≈ 3.89 µg/mL) |  |  |  |  |  |  |
| COc1ccc(-c2ccnc(Nc3cccc(C(N)=O)c3)n2)cc1 | 5.57 | 5.17 | 0 | 0 | 18.6 | 3.1 | 0 | 4.1 (≈ 1.31 µg/mL) |  |  |  |  |  |  |
| COc1ccc(-c2ccnc(Nc3ccc4cn[nH]c4c3)n2)cc1 | 5.10 | 4.19 | 0 |  |  |  |  |  |  |  |  |  |  |  |
| Cc1csc(-c2ccnc(Nc3ccc(C(=O)O)cc3)n2)c1 | 4.09 | 4.74 | 4.4 |  |  |  |  |  |  |  |  |  |  |  |
| COc1ccc(-c2ccnc(Nc3ccc(C(N)=O)cc3)n2)cc1 | 5.27 | 5.28 | 0 | 0 | 28.1 | 2.8 | 1.9 | < 0.6 |  |  |  |  |  |  |
